Read-outs that look alike come from different tables or passages of the source.
What was measured:
[1] = molecular target: NADH:ubiquinone oxidoreductase (complex I), LtP‐Mit (Leishmania tarentolae, UniProt A0A640KJ43+P15576+Q34939); assay: NADH:ubiquinone oxidoreductase (complex I) activity in LtP‐Mit, DCPIP; assay type: biochemical; details: for IC50: read-out: IC50 Complex I LtP‐Mit
Description: (§1) NADH:ubiquinone oxidoreductase (complex I) and succinate:ubiquinone oxidoreductase (complex II) activities were determined in 96 well‐plates using DCPIP as the electron acceptor. In each well, 200 μl of premix containing buffer (250 mM sucrose, 20 mM triethanolamine, and 1 mM EDTA, pH 7.4), DCPIP (60 μM), BSA (3.5 mg/ml for complex I and 1 mg/ml for complex II), idebenone (50 μM), and LtP‐Mit (complex I 0.17 μg/ml protein and complex II: 51 μg/ml protein) or BH‐SMP (complexes I and II: 8 μg/ml protein) were added. In addition, in the first wells, 97 μl of premix and 3 μl of EO compounds were added. Then six serial 1:3 dilutions were carried out transferring 100 μl in each step. The reaction was started by adding 50 μl of start‐mix per well, giving final concentrations of KCN (1 mM), for complex I:NADH (300 μM) or complex II:succinate (4 mM). After start of the reaction, images of the plates were recorded with a Canon EOS 300D camera (PLReader software, red–green channel) each 10 min for LtP‐Mit and 3 min for BH‐SMP (20 absorbance measurements). For each EO compound, percentage of inhibition was obtained with respect to controls (set to 100%) treated with maximum volume of vehicle (DMSO) introduced by test compound stocks.

[2] = molecular target: NADH:ubiquinone oxidoreductase (complex I), BH‐SMP (Bos taurus, UniProt P03887+P17694+P42026); assay type: biochemical, bovine; details: for IC50: read-out: IC50 Complex I BH‐SMP
Description: as §1

[3] = molecular target: succinate:ubiquinone oxidoreductase (complex II), LtP‐Mit (Leishmania tarentolae, UniProt A0A640KIH4+A0A640KIH8); assay: Succinate:ubiquinone oxidoreductase (complex II) activity in LtP‐Mit, DCPIP; assay type: biochemical; details: for IC50: read-out: IC50 Complex II LtP‐Mit
succinate:ubiquinone oxidoreductase (complex II), LtP‐Mit, sequence (A0A640KIH4 entry or part of it): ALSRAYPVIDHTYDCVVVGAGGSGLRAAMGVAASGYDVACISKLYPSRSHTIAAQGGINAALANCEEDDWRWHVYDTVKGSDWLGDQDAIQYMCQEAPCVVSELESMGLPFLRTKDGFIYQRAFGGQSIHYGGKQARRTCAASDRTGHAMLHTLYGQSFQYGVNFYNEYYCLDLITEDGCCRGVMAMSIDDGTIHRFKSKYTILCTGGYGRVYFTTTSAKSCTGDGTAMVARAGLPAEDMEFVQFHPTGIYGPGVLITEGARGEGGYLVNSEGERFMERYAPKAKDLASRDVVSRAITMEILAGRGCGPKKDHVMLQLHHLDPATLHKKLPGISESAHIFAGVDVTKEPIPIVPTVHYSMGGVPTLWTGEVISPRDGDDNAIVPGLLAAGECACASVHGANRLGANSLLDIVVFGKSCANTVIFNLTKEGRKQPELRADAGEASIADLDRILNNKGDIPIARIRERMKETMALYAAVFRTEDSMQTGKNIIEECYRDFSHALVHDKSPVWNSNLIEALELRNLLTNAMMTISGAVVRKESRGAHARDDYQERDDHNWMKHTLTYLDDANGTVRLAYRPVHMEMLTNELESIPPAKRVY
succinate:ubiquinone oxidoreductase (complex II), LtP‐Mit, sequence (A0A640KIH8 entry or part of it): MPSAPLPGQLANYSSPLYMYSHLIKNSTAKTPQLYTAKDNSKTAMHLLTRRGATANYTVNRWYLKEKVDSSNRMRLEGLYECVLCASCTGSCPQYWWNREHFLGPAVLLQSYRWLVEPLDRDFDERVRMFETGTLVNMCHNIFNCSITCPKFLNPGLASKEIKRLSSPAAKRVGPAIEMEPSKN
Description: as §1

[4] = molecular target: T1, succinate:ubiquinone oxidoreductase (complex II), BH‐SMP (Bos taurus, UniProt P31039+P35720+Q3T189+Q95123); assay: Succinate:ubiquinone oxidoreductase (complex II) activity in BH‐SMP, DCPIP; assay type: biochemical, bovine
T1 construct: from tissue; host or cells: bovine heart submitochondrial particles (BH-SMP)
T1 sequence (P31039 45-665 limits assumed): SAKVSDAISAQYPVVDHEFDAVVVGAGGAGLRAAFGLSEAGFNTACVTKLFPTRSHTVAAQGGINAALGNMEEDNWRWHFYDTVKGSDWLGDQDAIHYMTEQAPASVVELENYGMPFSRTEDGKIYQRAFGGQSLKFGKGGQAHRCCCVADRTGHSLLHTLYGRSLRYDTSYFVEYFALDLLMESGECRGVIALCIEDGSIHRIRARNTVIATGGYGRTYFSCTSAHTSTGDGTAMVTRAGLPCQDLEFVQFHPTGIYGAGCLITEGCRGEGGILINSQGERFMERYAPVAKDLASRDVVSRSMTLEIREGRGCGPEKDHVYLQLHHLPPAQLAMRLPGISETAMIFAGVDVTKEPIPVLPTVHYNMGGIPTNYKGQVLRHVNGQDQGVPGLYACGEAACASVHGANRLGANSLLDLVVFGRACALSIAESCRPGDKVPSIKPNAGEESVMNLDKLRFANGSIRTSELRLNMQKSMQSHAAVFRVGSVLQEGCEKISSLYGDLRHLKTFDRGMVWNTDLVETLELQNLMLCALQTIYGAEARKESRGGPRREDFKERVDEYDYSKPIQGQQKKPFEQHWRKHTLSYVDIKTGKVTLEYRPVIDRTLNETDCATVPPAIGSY
T1 sequence (Q3T189 29-280): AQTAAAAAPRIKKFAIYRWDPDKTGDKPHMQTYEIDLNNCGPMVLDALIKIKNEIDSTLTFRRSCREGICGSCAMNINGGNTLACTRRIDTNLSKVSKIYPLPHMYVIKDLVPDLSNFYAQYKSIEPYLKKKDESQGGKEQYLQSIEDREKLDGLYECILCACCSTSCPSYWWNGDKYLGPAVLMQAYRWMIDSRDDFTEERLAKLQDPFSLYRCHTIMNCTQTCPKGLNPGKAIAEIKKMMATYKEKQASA
T1 sequence (P35720 30-169): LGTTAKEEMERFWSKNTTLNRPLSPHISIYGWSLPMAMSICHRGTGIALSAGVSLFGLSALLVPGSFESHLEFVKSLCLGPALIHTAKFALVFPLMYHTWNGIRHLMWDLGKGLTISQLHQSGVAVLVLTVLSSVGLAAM
T1 sequence (Q95123 56-158): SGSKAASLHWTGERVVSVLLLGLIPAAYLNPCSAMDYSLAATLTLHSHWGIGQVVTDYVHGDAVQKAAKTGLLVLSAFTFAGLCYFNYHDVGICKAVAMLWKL
Description: as §1

[5] = molecular target: ubiquinol:cytochrome c oxidoreductase (complex III), LtP‐Mit (Leishmania tarentolae, UniProt A0A640KA58+A0A640KYQ2+P14548); assay: dUQH2:cyt c3+ oxidoreductase (complex III) activity in LtP‐Mit; assay type: biochemical
ubiquinol:cytochrome c oxidoreductase (complex III), LtP‐Mit, sequence (P14548 whole entry): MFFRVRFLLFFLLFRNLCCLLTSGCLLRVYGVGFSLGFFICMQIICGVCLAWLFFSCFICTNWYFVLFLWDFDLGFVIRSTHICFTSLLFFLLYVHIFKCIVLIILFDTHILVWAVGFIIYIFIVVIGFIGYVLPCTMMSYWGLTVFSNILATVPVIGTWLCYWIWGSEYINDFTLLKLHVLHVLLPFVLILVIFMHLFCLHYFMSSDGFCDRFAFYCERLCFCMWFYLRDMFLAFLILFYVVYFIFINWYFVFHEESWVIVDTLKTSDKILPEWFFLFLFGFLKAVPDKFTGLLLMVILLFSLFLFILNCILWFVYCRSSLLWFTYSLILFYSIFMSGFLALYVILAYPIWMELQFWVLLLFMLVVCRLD
ubiquinol:cytochrome c oxidoreductase (complex III), LtP‐Mit, sequence (A0A640KA58 entry or part of it): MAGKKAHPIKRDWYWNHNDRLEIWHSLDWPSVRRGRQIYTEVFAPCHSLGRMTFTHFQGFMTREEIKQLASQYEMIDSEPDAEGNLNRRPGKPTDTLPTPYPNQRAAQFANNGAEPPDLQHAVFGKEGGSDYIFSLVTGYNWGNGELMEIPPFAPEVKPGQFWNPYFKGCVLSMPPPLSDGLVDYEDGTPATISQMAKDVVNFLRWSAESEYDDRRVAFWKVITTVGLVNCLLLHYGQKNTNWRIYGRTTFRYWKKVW
ubiquinol:cytochrome c oxidoreductase (complex III), LtP‐Mit, sequence (A0A640KYQ2 entry or part of it): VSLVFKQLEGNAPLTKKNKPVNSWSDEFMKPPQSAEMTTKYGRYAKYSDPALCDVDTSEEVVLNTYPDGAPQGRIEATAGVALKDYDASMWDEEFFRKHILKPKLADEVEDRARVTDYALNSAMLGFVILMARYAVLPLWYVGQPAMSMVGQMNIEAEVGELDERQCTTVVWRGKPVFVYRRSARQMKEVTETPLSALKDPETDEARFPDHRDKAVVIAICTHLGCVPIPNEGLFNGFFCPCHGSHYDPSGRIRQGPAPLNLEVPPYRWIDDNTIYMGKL
Description: (§2) To measure the ubiquinol:cyt c ^3+ oxidoreductase (complex III) activity, the reduction of 100 μM cyt c ^3+ at 550 nm using 540 nm as reference was monitored in the presence of the artificial substrate decylubiquinol (dUQH2, 75 μM), which was prepared from dUQ by reduction (Müllebner et al., 2010). The dUQH2:cyt c ^3+ oxidoreductase activities of 40 μg protein/ml of LtP‐Mit or 3.2 μg protein/ml of BH‐SMP were measured in 1 ml of buffer containing 250 mM sucrose, 50 mM KH2PO4, 0.2 mM EDTA (pH 7.2), 2 mM KCN, and 4 mM NaN3. Respective EO compounds were added 50 s after starting the time scan, and the reaction was started after 100 s with dUQH2 and was monitored for additional 150 s. The activity of noninhibited dUQH2:cyt c ^3+ oxidoreductase activity was measured in the presence of the vehicle for the respective inhibitor (DMSO). All inhibitor concentrations were tested in triplicate. The reduction rates for cyt c ^3+ were calculated from the time trace of the absorption difference at 550 − 540 nm (ε550–540 nm = 19 mmol^−1 L cm^−1). Reduction rates in the presence of DMSO (maximum amount that was introduced by test compound stocks) were set to 100%, and the remaining activities in the presence of EO compounds were expressed in %. Three replicates were measured for each concentration.

[6] = molecular target: T2, cytochrome bc 1 complex purified from Bos taurus (Bos taurus, UniProt P00125+P00157+P13272); assay: dUQH2:cyt c3+ oxidoreductase activity of isolated BH‐bc 1; assay type: biochemical
T2 construct: from tissue; host or cells: Native complex purified in house from bovine heart submitochondrial particles (Triton X-100, hydroxyapatite)
Description: Cytochrome bc 1 complex was obtained from ScY‐SMP and BH‐SMP following published methodology (Geier, Schägger, Brandt, Colson, & von Jagow, 1992) with minor modifications as described below. SMP were resuspended in 1.1% Triton X‐100 and […] phenylmethylsulfonyl fluoride, pH 7.2, and centrifuged for 1 hr at 100,000 g. The bc 1 complex in the sediment was solubilized with 2.2% Triton X‐100, 600 mM NaCl, 10 mM KH2PO4, and 10 mM EDTA, pH 7.2. After centrifugation at 100,000 g for 1 hr, the supernatant was mixed with 50 ml of hydroxyapatite, equilibrated with 0.5% Triton X‐100, 250 mM NaCl, and 100 mM NaHPO4, pH 7.2. After washing the hydroxyapatite with 50 ml of equilibration buffer ([…], 100 mM NaHPO4, and 250 mM NaCl), the bc 1 complexes from ScY‐SMP and BH‐SMP (ScY‐bc 1 and BH‐bc 1, respectively) were eluted from hydroxyapatite with 250 mM KH2PO4 and 0.25% Triton X‐100, pH 7.2, and stored in liquid nitrogen.
as §2, with “Reduction rates in the presence of DMSO (maximum amount that was introduced by test compound stocks) were set to 100%, and the remaining activities in the presence of EO compounds were expressed in %.” left out, “concentration. […]” for “concentration.”

[7] = read-out: IC50 Complex II BH‐SMP
[8] = mean ± SD, three experiments, read-out: IC50 Complex III LtP‐Mit
[9] = immediate inhibition, five experiments, read-out: IC50 ± SD BH‐bc 1

NADH:ubiquinone oxidoreductase (complex I), LtP‐Mit, sequence (Q7M3U1 entry or part of it): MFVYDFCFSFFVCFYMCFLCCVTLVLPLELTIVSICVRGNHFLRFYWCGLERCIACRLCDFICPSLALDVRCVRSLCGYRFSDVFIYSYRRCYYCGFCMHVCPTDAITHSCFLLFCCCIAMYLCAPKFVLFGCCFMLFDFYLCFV
NADH:ubiquinone oxidoreductase (complex I), LtP‐Mit, sequence (P15576 whole entry): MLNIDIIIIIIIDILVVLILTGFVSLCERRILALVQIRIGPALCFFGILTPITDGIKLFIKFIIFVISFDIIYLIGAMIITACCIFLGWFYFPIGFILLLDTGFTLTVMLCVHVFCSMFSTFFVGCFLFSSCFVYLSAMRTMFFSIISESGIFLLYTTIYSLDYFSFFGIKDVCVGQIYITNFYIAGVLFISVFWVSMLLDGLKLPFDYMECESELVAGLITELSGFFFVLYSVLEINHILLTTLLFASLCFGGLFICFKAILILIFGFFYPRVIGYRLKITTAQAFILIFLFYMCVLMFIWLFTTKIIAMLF
NADH:ubiquinone oxidoreductase (complex I), LtP‐Mit, sequence (A0A640K8W3 entry or part of it, further chain): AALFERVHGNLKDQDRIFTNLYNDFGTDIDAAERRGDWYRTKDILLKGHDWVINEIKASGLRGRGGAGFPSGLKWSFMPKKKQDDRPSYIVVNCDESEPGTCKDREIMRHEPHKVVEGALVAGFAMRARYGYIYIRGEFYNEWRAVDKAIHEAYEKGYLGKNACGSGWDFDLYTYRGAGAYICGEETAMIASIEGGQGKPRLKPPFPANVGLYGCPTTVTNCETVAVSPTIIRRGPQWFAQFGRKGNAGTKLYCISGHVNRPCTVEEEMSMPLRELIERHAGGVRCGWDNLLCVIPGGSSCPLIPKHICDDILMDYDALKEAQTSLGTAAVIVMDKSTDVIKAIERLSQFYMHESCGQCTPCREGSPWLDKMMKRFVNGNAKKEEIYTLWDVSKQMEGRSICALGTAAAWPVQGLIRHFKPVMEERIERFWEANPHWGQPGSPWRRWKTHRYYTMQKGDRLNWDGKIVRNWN
NADH:ubiquinone oxidoreductase (complex I), LtP‐Mit, sequence (P15583 whole entry, further chain): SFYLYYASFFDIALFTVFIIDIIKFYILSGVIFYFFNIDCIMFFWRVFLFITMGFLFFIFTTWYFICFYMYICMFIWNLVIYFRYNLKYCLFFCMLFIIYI
NADH:ubiquinone oxidoreductase (complex I), LtP‐Mit, sequence (Q34939 entry or part of it): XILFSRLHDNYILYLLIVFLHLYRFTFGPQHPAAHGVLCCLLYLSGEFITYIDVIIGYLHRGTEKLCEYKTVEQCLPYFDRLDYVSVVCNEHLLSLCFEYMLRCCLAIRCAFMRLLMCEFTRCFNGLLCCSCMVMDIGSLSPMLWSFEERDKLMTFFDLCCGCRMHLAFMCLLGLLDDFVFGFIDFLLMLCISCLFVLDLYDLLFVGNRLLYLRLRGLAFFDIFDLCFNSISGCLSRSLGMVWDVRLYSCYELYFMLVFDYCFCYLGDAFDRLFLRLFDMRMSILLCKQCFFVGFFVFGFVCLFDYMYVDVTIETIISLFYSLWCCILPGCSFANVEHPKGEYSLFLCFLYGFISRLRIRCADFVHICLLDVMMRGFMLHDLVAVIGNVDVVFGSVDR
NADH:ubiquinone oxidoreductase (complex I), LtP‐Mit, sequence (A0A640KJ43 entry or part of it): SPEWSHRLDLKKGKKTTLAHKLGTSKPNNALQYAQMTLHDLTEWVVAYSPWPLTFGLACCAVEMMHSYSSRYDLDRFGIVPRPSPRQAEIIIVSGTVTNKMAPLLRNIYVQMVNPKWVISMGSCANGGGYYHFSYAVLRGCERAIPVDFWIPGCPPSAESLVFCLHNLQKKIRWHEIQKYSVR

Compound	% of inhibition at highest concentration tested, Complex I LtP‐Mit [1] [%]	IC50 [1] [µM]	% of inhibition at highest concentration tested, Complex I BH‐SMP [2] [%]	IC50 [2] [µM]	% of inhibition at highest concentration tested, Complex II LtP‐Mit [3] [%]	IC50 [3] [µM]	% of inhibition at highest concentration tested, Complex II BH‐SMP [4] [%]	IC50 [4, 7] [µM]	IC50 [5, 8] [µM]	IC50 [6, 9] [µM]	IC50 [4] [µM]	IC50 [5] [µM]	IC50 [6] [µM]
C=C1CC[C@H]2O[C@]2(C)CC[C@@H]2[C@@H]1CC2(C)C [Caryo, caryophyllene oxide]	7.2	> 100	39.7	> 100	12.3	> 100	16.3	> 100	54.8 ± 4	197 ± 1			
Cc1ccc(C(C)C)cc1O [Car, carvacrol]	16.4	> 100	13.3	> 100	8.8	> 100	21.5	> 100	150 ± 2.3	421 ± 4			
CC(C)C12C=CC(C)(CC1)OO2 (stereo not drawn) [Asc, ascaridole]	1.1	> 100	5.1	> 100	17.6	> 100	21.2				> 100	131 ± 3.5	381 ± 9
